Laboratory results as given in patent US12378224B2 (Dong-A Socio Holdings Co., Ltd., priority 2016, dated 2025).

Biological target: human c-MER catalytic domain (Homo sapiens (Human), UniProt Q12866)
Assay: TR-FRET Kinase Activity Biochemical Assay (LanthaScreen)
Settings: 10 uM ATP, 1 hour, kinase not given
Summary of the method: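 Activity was quantified as the ratio of 495 nm to 520 nm emission (excitation 340 nm) in a LanthaScreen TR-FRET format. The enzyme was the human c-MER catalytic domain, and the substrate was fluorescein-poly-GT. Detection used 2 nM Tb anti-phosphotyrosine antibody for 30 min after termination with 10 mM EDTA.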

Sequence of human c-MER catalytic domain (Q12866 587-858): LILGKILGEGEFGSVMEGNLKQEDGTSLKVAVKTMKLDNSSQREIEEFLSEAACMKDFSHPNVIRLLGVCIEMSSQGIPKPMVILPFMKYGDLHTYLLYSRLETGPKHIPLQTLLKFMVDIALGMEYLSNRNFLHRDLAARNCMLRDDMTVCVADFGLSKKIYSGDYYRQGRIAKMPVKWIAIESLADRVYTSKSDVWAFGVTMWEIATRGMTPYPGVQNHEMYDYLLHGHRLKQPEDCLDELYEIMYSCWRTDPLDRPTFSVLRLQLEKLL

SMILES	IC50 [µM]
C=Cc1ccc(C(=O)N2CC[C@@H](NC(=O)c3cc(-c4cnn(C)c4)cnc3N)C2)cc1 [Example 417, (R)-2-amino-5-(1-methyl-1H-pyrazol-4-yl)-N-(1-(4-vinylbenzoyl)pyrrolidin-3-yl)nicotinamide]	0.1 to 1
Cn1cc(-c2cnc(N)c(C(=O)N[C@@H]3CCN(C(=O)Cc4cccc(Br)c4)C3)c2)cn1 [Example 421, (R)-2-amino-N-(1-(2-(3-bromophenyl)acetyl)pyrrolidin-3-yl)-5-(1-methyl-1H-pyrazol-4-yl)nicotinamide]	> 1
Cn1cc(-c2cnc(N)c(C(=O)N[C@@H]3CCN(C(=O)Cc4cccc(-c5ccccc5)c4)C3)c2)cn1 [Example 423, (R)—N-(1-(2-([1,1′-biphenyl]-3-yl)acetyl)pyrrolidin-3-yl)-2-amino-5-(1-methyl-1H-pyrazol-4-yl)nicotinamide]	> 1
CN1CCN(Cc2ccc(-c3cccc(/C=C/C(=O)N4CC[C@@H](NC(=O)c5cc(-c6cnn(C)c6)cnc5N)C4)c3)cc2)CC1 [Example 431, (R,E)-2-amino-5-(1-methyl-1H-pyrazol-4-yl)-N-(1-(3-(4′-((4-methylpiperazin-1-yl)methyl)-[1,1′-biphenyl]-3-yl)acryloyl)pyrrolidin-3-yl)nicotinamide]	0.1 to 1
CN1CCN(CCc2cccc(-c3cccc(C(=O)N4CC[C@@H](NC(=O)c5cc(-c6cnn(C)c6)cnc5N)C4)c3)c2)CC1 [Example 453, (R)-2-amino-5-(1-methyl-1H-pyrazol-4-yl)-N-(1-(3′-(2-(4-methylpiperazin-1-yl)ethyl)-[1,1′-biphenyl]-3-carbonyl)pyrrolidin-3-yl)nicotinamide]	> 1
Cn1cc(-c2cnc(N)c(C(=O)N[C@@H]3CCN(C(=O)c4cccc(-c5cccc(N)c5)c4)C3)c2)cn1 [Example 457, (R)-2-amino-N-(1-(3′-amino-[1,1′-biphenyl]-3-carbonyl)pyrrolidin-3-yl)-5-(1-methyl-1H-pyrazol-4-yl)nicotinamide]	> 1
Cn1cc(-c2cnc(N)c(C(=O)N[C@@H]3CCN(C(=O)c4cccc(-c5ccoc5)c4)C3)c2)cn1 [Example 468, (R)-2-amino-N-(1-(3-(furan-3-yl)benzoyl)pyrrolidin-3-yl)-5-(1-methyl-1H-pyrazol-4-yl)nicotinamide]	> 1
Cn1cc(-c2cnc(N)c(C(=O)N[C@@H]3CCN(C(=O)c4cccc(C5=CCCCC5)c4)C3)c2)cn1 [Example 475, (R)-2-amino-5-(1-methyl-1H-pyrazol-4-yl)-N-(1-(2′,3′,4′,5′-tetrahydro-[1,1′-biphenyl]-3-carbonyl)pyrrolidin-3-yl)nicotinamide]	> 1
Cn1cc(-c2cnc(N)c(C(=O)N[C@@H]3CCN(C(=O)c4cccc(-c5cccc(N6CCCCC6)c5)c4)C3)c2)cn1 [Example 477, (R)-2-amino-5-(1-methyl-1H-pyrazol-4-yl)-N-(1-(3′-(piperidin-1-yl)-[1,1′-biphenyl]-3-carbonyl)pyrrolidin-3-yl)nicotinamide]	> 1
Cn1cc(-c2cnc(N)c(C(=O)N[C@@H]3CCN(C(=O)c4cc(-c5ccccc5)ccc4N)C3)c2)cn1 [Example 486, (R)-2-amino-N-(1-(4-amino-[1,1′-biphenyl]-3-carbonyl)pyrrolidin-3-yl)-5-(1-methyl-1H-pyrazol-4-yl)nicotinamide]	0.1 to 1
Cn1cc(-c2cnc(N)c(C(=O)N[C@@H]3CCN(C(=O)c4ccc(-c5ccoc5)cc4)C3)c2)cn1 [Example 487, (R)-2-amino-N-(1-(4-(furan-3-yl)benzoyl)pyrrolidin-3-yl)-5-(1-methyl-1H-pyrazol-4-yl)nicotinamide]	0.1 to 1
Cn1cc(-c2cnc(N)c(C(=O)N[C@@H]3CCN(C(=O)c4ccc(-c5ccncc5)cc4)C3)c2)cn1 [Example 489, (R)-2-amino-5-(1-methyl-1H-pyrazol-4-yl)-N-(1-(4-(pyridin-4-yl)benzoyl)pyrrolidin-3-yl)nicotinamide]	0.1 to 1
Cn1cc(-c2cnc(N)c(C(=O)N[C@@H]3CCN(C(=O)c4ccc(C5=CCCCC5)cc4)C3)c2)cn1 [Example 494, (R)-2-amino-5-(1-methyl-1H-pyrazol-4-yl)-N-(1-(2′,3′,4′,5′-tetrahydro-[1,1′-biphenyl]-4-carbonyl)pyrrolidin-3-yl)nicotinamide]	0.01 to 0.1
Cn1cc(-c2cnc(N)c(C(=O)N[C@@H]3CCN(C(=O)c4cccc(-c5ccc6c(c5)NC(=O)C6=O)c4)C3)c2)cn1 [Example 495, (R)-2-amino-N-(1-(3-(2,3-dioxoindolin-6-yl)benzoyl)pyrrolidin-3-yl)-5-(1-methyl-1H-pyrazol-4-yl)nicotinamide]	> 1
Cn1cc(-c2cnc(N)c(C(=O)N[C@@H]3CCN(C(=O)C4Cc5ccccc5C4)C3)c2)cn1 [Example 496, (R)-2-amino-N-(1-(2,3-dihydro-1H-indene-2-carbonyl)pyrrolidin-3-yl)-5-(1-methyl-1H-pyrazol-4-yl)nicotinamide]	> 1
Cn1cc(-c2cnc(N)c(C(=O)N[C@@H]3CCN(C(=O)c4nc5cc(Cl)ccc5o4)C3)c2)cn1 [Example 498, (R)-2-amino-N-(1-(5-chlorobenzo[d]oxazole-2-carbonyl)pyrrolidin-3-yl)-5-(1-methyl-1H-pyrazol-4-yl)nicotinamide]	> 1
Cn1cc(-c2cnc(N)c(C(=O)N[C@@H]3CCN(C(=O)c4nn(C)c5ccccc45)C3)c2)cn1 [Example 499, (R)-2-amino-N-(1-(1-methyl-1H-indazole-3-carbonyl)pyrrolidin-3-yl)-5-(1-methyl-1H-pyrazol-4-yl)nicotinamide]	0.1 to 1
Cc1onc(-c2ccccc2)c1C(=O)N1CC[C@@H](NC(=O)c2cc(-c3cnn(C)c3)cnc2N)C1 [Example 500, (R)-2-amino-5-(1-methyl-1H-pyrazol-4-yl)-N-(1-(5-methyl-3-phenylisoxazole-4-carbonyl)pyrrolidin-3-yl)nicotinamide]	> 1
Cn1cc(-c2cnc(N)c(C(=O)N[C@@H]3CCN(C(=O)c4cccc5c4oc4ccccc45)C3)c2)cn1 [Example 501, (R)-2-amino-N-(1-(dibenzo[b,d]furan-4-carbonyl)pyrrolidin-3-yl)-5-(1-methyl-1H-pyrazol-4-yl)nicotinamide]	> 1
Cn1cc(-c2cnc(N)c(C(=O)N[C@@H]3CCN(C(=O)c4ccc5[nH]ccc5c4)C3)c2)cn1 [Example 502, (R)—N-(1-(1H-indole-5-carbonyl)pyrrolidin-3-yl)-2-amino-5-(1-methyl-1H-pyrazol-4-yl)nicotinamide]	> 1
Cn1cc(-c2cnc(N)c(C(=O)N[C@@H]3CCN(C(=O)c4ccc5[nH]c6c(c5c4)CCC6)C3)c2)cn1 [Example 503, (R)-2-amino-5-(1-methyl-1H-pyrazol-4-yl)-N-(1-(1,2,3,4-tetrahydrocyclopenta[b]indole-7-carbonyl)pyrrolidin-3-yl)nicotinamide]	> 1
Cn1cc(-c2cnc(N)c(C(=O)N[C@@H]3CCN(C(=O)c4ccc(-c5cnn(C6CCN(C(=O)OC(C)(C)C)CC6)c5)cc4)C3)c2)cn1 [Example 511, tert-butyl (R)-4-(4-(4-(3-(2-amino-5-(1-methyl-1H-pyrazol-4-yl)nicotinamido)pyrrolidine-1-carbonyl)phenyl)-1H-pyrazol-1-yl)piperidine-1-carboxylate]	0.1 to 1
